Experiments:
[1] = system: migraine model of guinea pig; assay: Preventive effect in guinea pig migraine model (leaked protein from dural blood vessel caused by 5-HT); format: in vivo; conditions: for leakage of the protein: 10 mg/kg or 30 mg/kg of oral administration; for amount of leaked protein (fluorescence intensity per mg dura): 3 mg/kg, intraperitoneal administration, 5-HT i.v.
Method: In this test system, migraine preventive effect was evaluated by measuring this leaked protein in the presence of a compound to be tested, and this was carried out by partially modifying the method described in Rachel A. Spokes and Vicki C. Middlefell, European Journal of Pharmacology (1995) 281, 75-79.
Hartley male guinea pig (250-350 g) was anesthetized by peritoneal administration (i.p.) of urethane (1.5 g/kg). By applying simple cannulation to a saphena, 50 mg/kg of a fluorescent protein (FITC-BSA) was intravenously administered (i.v.) and 5 minutes thereafter, physiological saline or […] of 5-HT was intravenously administered. By carrying out perfusion with physiological saline 15 minutes thereafter, blood was washed out. […] By detaching the skull, dura mater was took out and incubated at 37° C. for 16 hours in an Eppendorf tube in the presence of physiological saline of pH 11. Centrifugation was carried out, and the supernatant was dispensed into a plate. Fluorescence intensity was measured using a fluorescence plate reader (excitation wavelength 485 nm, […] 530 nm). By measuring dura mater weight, fluorescence intensity per mg dural protein was calculated.
Values of the fluorescence intensity measured at the time of the administration of each compound and at the time of no administration are shown in FIG. 1 to FIG. 4. […] The control indicates fluorescence intensity at the time of no addition of 5-HT, namely the reference value.

D2 receptor = D2 receptor (Homo sapiens, UniProt P14416); assay: Affinity for other receptors: D2; format: binding
From the text: (§1) Affinity of the compound of Preparation 3 for 5-HT1A, 5-HT1B, 5-HT2A, 5-HT2C, 5-HT3, 5-HT4, 5-HT6, α1, M1 and D2 receptors was verified using conventionally known techniques (Journal of Neurochemistry (1986) 47, 529-540; Molecular Pharmacology (1982) 21, 301-314; European Journal of Pharmacology (1985) 106, 539-546; Journal of Pharmacology Experimental Therapy (1992) 263, 1127-1132; British Journal of Pharmacology (1993) 109, 618-624; Molecular Pharmacology (1993) 43, 320-327; Molecular Pharmacology (1989) 35, 324-330; Cellular Molecular Neurobiology (1988) 8, 181-191; European Journal of Pharmacology (1988) 173, 177-182).

5-HT3 receptor = molecular target: T1, 5-HT3 receptor (Homo sapiens, UniProt P46098); assay: Affinity for other receptors: 5-HT3; format: binding
T1 sequence (P46098 24-478): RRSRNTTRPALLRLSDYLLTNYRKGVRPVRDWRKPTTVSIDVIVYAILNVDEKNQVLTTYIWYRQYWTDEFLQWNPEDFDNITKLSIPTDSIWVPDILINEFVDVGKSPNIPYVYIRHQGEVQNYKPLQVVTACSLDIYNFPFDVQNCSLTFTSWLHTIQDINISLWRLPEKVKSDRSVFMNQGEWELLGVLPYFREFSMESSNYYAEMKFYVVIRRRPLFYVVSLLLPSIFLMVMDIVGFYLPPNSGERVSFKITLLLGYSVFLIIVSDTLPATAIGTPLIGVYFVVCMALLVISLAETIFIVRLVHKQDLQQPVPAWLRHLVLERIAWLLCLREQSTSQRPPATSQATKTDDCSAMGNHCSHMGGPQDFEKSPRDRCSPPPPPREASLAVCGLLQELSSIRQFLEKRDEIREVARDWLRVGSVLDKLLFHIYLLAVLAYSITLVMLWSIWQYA
From the text: as §1

M1 receptor = molecular target: T2, M1 receptor (Homo sapiens, UniProt P11229); assay: Affinity for other receptors: M1; format: binding
T2 sequence (P11229 1-460): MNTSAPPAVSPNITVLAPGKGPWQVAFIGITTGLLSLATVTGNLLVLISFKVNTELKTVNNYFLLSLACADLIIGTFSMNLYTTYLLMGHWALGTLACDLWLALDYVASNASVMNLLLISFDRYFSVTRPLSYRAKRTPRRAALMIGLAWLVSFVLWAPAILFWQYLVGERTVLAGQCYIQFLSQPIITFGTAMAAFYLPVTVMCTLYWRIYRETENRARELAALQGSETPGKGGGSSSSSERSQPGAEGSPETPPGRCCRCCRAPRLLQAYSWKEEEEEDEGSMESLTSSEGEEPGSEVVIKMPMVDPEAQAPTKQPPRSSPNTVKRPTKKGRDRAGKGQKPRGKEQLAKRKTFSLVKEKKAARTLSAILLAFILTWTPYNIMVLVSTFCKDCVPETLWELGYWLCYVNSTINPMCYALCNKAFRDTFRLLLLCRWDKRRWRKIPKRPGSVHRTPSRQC
From the text: as §1

5-HT2C receptor = molecular target: T3, 5-HT2C receptor (Homo sapiens, UniProt P28335); assay: Affinity for other receptors: 5-HT2C; format: binding
T3 sequence (P28335 33-458): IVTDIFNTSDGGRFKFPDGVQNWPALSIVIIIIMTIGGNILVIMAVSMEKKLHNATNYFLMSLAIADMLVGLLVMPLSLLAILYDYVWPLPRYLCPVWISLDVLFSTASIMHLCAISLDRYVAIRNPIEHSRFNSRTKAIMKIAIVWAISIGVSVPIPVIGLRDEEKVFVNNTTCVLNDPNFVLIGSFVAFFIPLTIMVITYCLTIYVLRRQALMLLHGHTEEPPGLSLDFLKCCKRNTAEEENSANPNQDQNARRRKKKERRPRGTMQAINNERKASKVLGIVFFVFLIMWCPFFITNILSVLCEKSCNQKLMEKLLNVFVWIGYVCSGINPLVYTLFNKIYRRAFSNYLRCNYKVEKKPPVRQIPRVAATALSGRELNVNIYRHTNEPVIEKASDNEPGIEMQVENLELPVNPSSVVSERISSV
From the text: as §1

human 5-HT7 receptor = molecular target: T4, human 5-HT7 receptor (Homo sapiens, UniProt P34969); assay: Binding test of 5-HT7 receptor; conditions: [3H]5-HT, human 5-HT7 receptor expressing CHO cell membrane
T4 construct: expressed in transfected cells; host or cells: CHO
Method: Cultured CHO cells expressing human 5-HT7 receptor were washed with PBS(−). The cells were scraped in the presence of PBS(−), and the cells were recovered by centrifugation (1,000 rpm, 10 min, 4° C.). They were homogenized using Polytron (TA 10-TS) in the presence of 5 mM Tris-HCl (pH 7.4) buffer and centrifuged (40,000×g, 10 min, 4° C.). They were suspended using a homogenizer in the presence of 50 mM Tris-HCl (pH 7.4) buffer. They were subjected to centrifugation (40,000×g, 10 min, 4° C.), suspended in 50 mM Tris-HCl (pH 7.4) and stored at −80° C.
A total volume of 500 μl containing 50 mM Tris-HCl-4 mM CaCl2 (pH 7.4) buffer, the human 5-HT7 receptor expressing CHO cell membrane preparation and a radio ligand [^3H]5-HT (3.40 TBq/mmol) was incubated at 25° C. for 1 hour. The compound was dissolved in 100% DMSO and diluted to respective concentrations. Nonspecific binding was defined as the binding quantity in the presence of 10 μM metergoline, and the result of subtracting the nonspecific binding quantity from the total binding quantity was defined as the specific binding quantity. This was mixed with 4 ml of 50 mM Tris-HCl buffer (pH 7.4) and filtered under a reduced pressure using a GF/B glass filter, and the filter was washed (4 ml×3) with the same buffer. The glass filter was soaked in 5 ml of a liquid scintillator (Aquasol-2) and the radioactivity was measured using a liquid scintillation counter. Concentration of the compound which inhibits 50% of the receptor binding, IC50 value, was obtained by nonlinear regression analysis using SAS (ver. 6.11), and the Ki value which represents its affinity for the receptor was calculated using the formula of Cheng & Prussoff; Ki=IC50/(1+[L]/[Kd]) ([L]: ligand concentration, [Kd]: dissociation constant).

α1 receptor = assay: Affinity for other receptors: α1; format: binding
From the text: as §1

5-HT2A receptor = 5-HT2A receptor (Homo sapiens, UniProt P28223); assay: Affinity for other receptors: 5-HT2A; format: binding
From the text: as §1

5-HT1A receptor = molecular target: T5, 5-HT1A receptor (Homo sapiens, UniProt P08908); assay: Affinity for other receptors: 5-HT1A; format: binding
T5 sequence (P08908 1-422): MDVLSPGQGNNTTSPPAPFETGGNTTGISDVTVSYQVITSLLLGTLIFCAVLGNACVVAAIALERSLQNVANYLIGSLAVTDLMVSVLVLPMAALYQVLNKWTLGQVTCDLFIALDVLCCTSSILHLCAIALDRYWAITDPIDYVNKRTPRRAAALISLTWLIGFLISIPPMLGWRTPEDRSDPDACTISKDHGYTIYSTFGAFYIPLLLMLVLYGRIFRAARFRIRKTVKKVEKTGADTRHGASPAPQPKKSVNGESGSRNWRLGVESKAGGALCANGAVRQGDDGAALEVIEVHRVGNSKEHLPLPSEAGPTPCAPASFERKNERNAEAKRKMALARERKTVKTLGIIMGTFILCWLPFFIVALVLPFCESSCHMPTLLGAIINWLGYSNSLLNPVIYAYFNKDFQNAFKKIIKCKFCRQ
From the text: as §1

5-HT6 receptor = 5-HT6 receptor (Homo sapiens, UniProt P50406); assay: Affinity for other receptors: 5-HT6; format: binding
From the text: as §1

human 5-HT2B receptor = molecular target: T6, human 5-HT2B receptor (Homo sapiens, UniProt P41595); assay: Binding test of 5-HT2B receptor; conditions: [3H]Mesulergine, human 5-HT2B receptor expressing HEK293-EBNA cell membrane
T6 construct: expressed in transfected cells; host or cells: HEK293-EBNA
Method: HEK293-ENBA cell was used as the gene transferring cell.
Cultured HEK293-EBNA cells expressing human 5-HT2B receptor were washed with PBS(−). The cells were scraped in the presence of PBS(−), and the cells were recovered by centrifugation (1,000 rpm, 10 min, 4° C.). They were homogenized using Polytron (PTA 10-TS) in the presence of 5 mM Tris-HCl (pH 7.4) buffer and centrifuged (40,000×g, 10 min, 4° C.). They were suspended using a homogenizer in the presence of 50 mM Tris-HCl (pH 7.4) buffer. They were subjected to centrifugation (40,000×g, 10 min. 4° C.), suspended in 50 mM Tris-HCl (H 7.4) and stored at −80° C.
A total volume of 500 μl containing 50 mM Tris-HCl-4 mM CaCl2 (pH 7.4) buffer, the human 5-HT2B receptor expressing HEK293-EBNA cell membrane preparation and a radio ligand [^3H]Mesulergine (3.1 TBq/mmol) was incubated at 25° C. for 1 hour. The compound was dissolved in 100%1/DMSO and diluted to respective concentrations. Nonspecific binding was defined as the binding quantity in the presence of 1 μM ritanserin, and the result of subtracting the nonspecific binding quantity from the total binding quantity was defined as the specific binding quantity. […] The glass filter was soaked in 5 ml of a liquid scintillator (Aquasol-2) and the radioactivity was measured using a liquid scintillation counter. […]

5-HT1B receptor = 5-HT1B receptor (Homo sapiens, UniProt P28222); assay: Affinity for other receptors: 5-HT1B; format: binding
From the text: as §1

5-HT4 receptor = 5-HT4 receptor (Homo sapiens, UniProt Q13639); assay: Affinity for other receptors: 5-HT4; format: binding
From the text: as §1

5-HT2B receptor = conditions: against 5-HT1A, 5-HT1B, 5-HT2A, 5-HT2C, 5-HT3, 5-HT6, 5-HT7, α1, M1 and D2 receptors; cited from earlier work

T4 sequence (P34969 whole entry): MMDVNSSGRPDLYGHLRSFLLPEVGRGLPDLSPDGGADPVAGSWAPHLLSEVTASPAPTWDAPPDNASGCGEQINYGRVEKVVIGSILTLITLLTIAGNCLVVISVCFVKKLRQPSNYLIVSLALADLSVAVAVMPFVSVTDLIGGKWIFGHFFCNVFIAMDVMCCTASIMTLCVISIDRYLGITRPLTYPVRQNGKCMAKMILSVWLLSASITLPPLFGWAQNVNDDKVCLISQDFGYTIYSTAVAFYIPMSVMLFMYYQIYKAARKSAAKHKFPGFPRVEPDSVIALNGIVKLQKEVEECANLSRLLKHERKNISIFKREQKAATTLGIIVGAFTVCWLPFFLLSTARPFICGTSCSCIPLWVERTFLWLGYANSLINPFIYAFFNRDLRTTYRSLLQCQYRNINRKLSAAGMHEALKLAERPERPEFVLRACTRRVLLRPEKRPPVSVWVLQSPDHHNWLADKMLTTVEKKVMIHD
Sequence of 5-HT4 receptor (Q13639 whole entry): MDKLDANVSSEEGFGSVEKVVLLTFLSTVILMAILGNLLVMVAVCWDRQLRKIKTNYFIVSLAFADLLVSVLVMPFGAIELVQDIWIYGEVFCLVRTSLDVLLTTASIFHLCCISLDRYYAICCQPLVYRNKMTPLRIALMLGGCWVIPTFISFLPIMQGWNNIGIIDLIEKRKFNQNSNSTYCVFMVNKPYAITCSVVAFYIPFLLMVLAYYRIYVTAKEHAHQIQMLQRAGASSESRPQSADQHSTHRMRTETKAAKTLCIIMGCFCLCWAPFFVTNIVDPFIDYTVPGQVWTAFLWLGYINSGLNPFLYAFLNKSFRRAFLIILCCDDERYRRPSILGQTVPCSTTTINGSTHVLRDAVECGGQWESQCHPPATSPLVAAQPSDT
Sequence of 5-HT2A receptor (P28223 whole entry): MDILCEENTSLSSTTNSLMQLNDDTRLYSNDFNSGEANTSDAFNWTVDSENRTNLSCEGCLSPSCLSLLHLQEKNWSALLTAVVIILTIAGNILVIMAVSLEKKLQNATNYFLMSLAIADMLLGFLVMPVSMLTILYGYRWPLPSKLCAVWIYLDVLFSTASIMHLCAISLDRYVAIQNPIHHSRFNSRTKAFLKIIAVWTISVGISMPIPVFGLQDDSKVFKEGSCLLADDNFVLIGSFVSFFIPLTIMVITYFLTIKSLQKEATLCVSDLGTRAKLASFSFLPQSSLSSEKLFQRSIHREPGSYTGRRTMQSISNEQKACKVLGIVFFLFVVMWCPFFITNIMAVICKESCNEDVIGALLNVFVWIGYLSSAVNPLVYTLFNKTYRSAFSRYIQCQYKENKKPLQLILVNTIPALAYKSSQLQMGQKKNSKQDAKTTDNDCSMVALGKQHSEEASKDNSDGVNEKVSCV
Sequence of D2 receptor (P14416 whole entry): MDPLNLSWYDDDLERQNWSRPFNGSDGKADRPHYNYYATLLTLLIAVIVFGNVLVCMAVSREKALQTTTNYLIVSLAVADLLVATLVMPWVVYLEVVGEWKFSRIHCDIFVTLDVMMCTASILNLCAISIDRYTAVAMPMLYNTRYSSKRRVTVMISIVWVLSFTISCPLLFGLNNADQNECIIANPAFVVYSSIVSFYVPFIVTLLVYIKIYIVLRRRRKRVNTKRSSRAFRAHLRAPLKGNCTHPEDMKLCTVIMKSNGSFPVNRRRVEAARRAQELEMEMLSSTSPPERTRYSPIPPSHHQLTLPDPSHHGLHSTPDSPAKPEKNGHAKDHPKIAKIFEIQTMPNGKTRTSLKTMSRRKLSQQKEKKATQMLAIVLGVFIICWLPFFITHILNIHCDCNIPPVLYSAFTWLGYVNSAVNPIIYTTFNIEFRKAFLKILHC
Sequence of 5-HT6 receptor (P50406 whole entry): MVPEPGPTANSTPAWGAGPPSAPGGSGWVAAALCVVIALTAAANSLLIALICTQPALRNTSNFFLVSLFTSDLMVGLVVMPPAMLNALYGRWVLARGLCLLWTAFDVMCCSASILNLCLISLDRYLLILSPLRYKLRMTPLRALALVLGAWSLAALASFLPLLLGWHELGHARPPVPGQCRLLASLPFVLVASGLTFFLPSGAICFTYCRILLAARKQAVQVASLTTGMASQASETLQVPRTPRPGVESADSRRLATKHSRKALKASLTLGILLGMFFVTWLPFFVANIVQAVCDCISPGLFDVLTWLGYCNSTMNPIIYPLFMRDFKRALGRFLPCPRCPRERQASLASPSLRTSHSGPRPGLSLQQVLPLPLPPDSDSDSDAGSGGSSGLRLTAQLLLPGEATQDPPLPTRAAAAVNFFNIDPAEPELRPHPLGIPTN
T6 sequence (P41595 whole entry): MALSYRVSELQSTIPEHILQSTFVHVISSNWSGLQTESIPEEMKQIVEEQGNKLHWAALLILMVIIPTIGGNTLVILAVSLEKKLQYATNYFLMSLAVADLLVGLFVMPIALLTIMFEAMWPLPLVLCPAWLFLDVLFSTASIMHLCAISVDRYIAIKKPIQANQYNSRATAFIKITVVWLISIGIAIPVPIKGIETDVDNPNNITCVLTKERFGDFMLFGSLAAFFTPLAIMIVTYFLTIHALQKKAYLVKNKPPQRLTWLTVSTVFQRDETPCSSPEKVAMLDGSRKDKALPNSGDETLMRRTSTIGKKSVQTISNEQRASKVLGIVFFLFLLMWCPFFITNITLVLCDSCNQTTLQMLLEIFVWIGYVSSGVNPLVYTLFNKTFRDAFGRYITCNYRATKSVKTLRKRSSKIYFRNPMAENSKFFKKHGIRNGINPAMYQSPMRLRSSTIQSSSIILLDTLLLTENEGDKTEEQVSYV
Sequence of 5-HT1B receptor (P28222 whole entry): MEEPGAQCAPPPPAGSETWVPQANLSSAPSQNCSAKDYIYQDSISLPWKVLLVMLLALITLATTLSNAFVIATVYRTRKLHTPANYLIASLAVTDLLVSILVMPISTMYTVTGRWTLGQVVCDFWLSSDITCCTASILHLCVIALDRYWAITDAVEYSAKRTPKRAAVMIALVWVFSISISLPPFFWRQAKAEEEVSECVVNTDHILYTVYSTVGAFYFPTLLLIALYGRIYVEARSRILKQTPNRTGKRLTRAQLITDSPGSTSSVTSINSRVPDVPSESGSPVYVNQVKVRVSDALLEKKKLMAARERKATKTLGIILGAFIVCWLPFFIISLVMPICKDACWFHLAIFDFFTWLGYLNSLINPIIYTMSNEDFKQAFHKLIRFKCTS

SMILES: Cl.NC(N)=NC(=O)c1ccc2c(c1)C1(CCCO1)c1ccccc1-2 (racemic) [Preparation 60]
- leakage of the protein [1]: almost completely suppressed leakage of the protein

SMILES: COC1(C)c2ccccc2-c2ccc(C(=O)N=C(N)N)cc21.Cl (racemic) [Preparation 71]
- leakage of the protein [1]: almost completely suppressed leakage of the protein

SMILES: CCC1(OC)c2ccccc2-c2ccc(C(=O)N=C(N)N)cc21.Cl (racemic) [Preparation 72]
- leakage of the protein [1]: almost completely suppressed leakage of the protein

SMILES: COC1(C)c2cc(C(=O)N=C(N)N)ccc2-c2c(F)cccc21.Cl (racemic) [Preparation 87]
- leakage of the protein [1]: almost completely suppressed leakage of the protein

SMILES: Cl.NC(N)=NC(=O)c1ccc2c(c1)C1(CCCO1)c1ccccc1-2 (single isomer, unassigned) [Preparation 60a]
- leakage of the protein [1]: almost completely suppressed leakage of the protein

SMILES: Cl.NC(N)=NC(=O)c1ccc2c(c1)C1(CCCO1)c1ccccc1-2 (single isomer, unassigned) [Preparation 60b]
- leakage of the protein [1]: almost completely suppressed leakage of the protein

SMILES: CC1(O)c2cc(C(=O)N=C(N)N)ccc2-c2c(F)cccc21.Cl (single isomer, unassigned) [Preparation 78b]
- leakage of the protein [1]: almost completely suppressed leakage of the protein

SMILES: Cl.NC(N)=NC(=O)c1ccc2c(c1)C(O)c1ccccc1-2 (centres unmarked) [Preparation 3, N-(diaminomethylene)-9-hydroxy-9H-fluorene-2-carboxamide hydrochloride]
- IC50 (D2 receptor): ≥ 1000 nM
- IC50 (5-HT3 receptor): ≥ 1000 nM
- IC50 (M1 receptor): ≥ 1000 nM
- IC50 (5-HT2C receptor): ≥ 1000 nM
- Ki (human 5-HT7 receptor): 17.6 nM
- IC50 (α1 receptor): ≥ 1000 nM
- IC50 (5-HT2A receptor): ≥ 1000 nM
- amount of leaked protein (fluorescence intensity per mg dura) [1]: almost completely suppressed the amount of leaked protein
- IC50 (5-HT1A receptor): ≥ 1000 nM
- IC50 (5-HT6 receptor): ≥ 1000 nM
- Ki (human 5-HT2B receptor): 1.8 nM
- IC50 (5-HT1B receptor): ≥ 1000 nM
- IC50 (5-HT4 receptor): ≥ 1000 nM

SMILES: NC(N)=NC(=O)c1ccc2c(c1)C(Cl)c1ccccc1-2 (centres unmarked) [Preparation 4, 9-chloro-N-(diaminomethylene)-9H-fluorene-2-carboxamide]
- Ki (human 5-HT7 receptor): 0.4 to 310 nM

SMILES: NC(N)=NC(=O)c1ccc2c(c1)C(=NO)c1c(CO)cccc1-2 [Preparation 7, (9EZ)-N-(diaminomethylene)-9-hydroxyimino-8-hydroxymethyl-9H-fluorene-2-carboxamide]
- Ki (human 5-HT7 receptor): 0.4 to 310 nM

SMILES: CC(C)c1cc(-c2ccc(F)c3ccccc23)nc(N)n1 [RS-127445, 2-amino-4-(4-fluoronaphth-1-yl)-6-isopropylpyrimidine, reference compound]
- amount of leaked protein (fluorescence intensity per mg dura) [1]: showed an effect to reduce amount of the leaked protein
- amount of leaked protein versus reference value ([1]; dose increased from 3 mg/kg to 10 mg/kg, intraperitoneal): did Dot reduced to the reference value
- minimum amount showing maximum drug effect in this model ([1]; intraperitoneal): 3 mg/kg
- 5-HT2B receptor selectivity (5-HT2B receptor): 1000 times

SMILES: CC1CCN(CC[C@H]2CCCN2S(=O)(=O)c2cccc(O)c2)CC1 [SB-269970, (R)-3-(2-(2-(4-methylpiperidin-1-yl)ethyl)pyrrolidine-1-sulfonyl)phenol, reference compound]
- amount of leaked protein versus reference value ([1]; dose increased from 3 mg/kg to 30 mg/kg, intraperitoneal): did not reduced the amount of leaked protein to the reference value
- amount of leaked protein ([1]; from 10 mg/kg, intraperitoneal): showed the effect
- minimum amount showing maximum drug effect in this model ([1]; intraperitoneal): 10 mg/kg

From patent US20080161419A1, “Prophylactic Antimigraine Agents” (priority 2004, published 2008)
